Assay [1] concerns human red blood cells. The assay is described as follows: Human Cell-Based Assay. Particulars: Erythrocyte; human whole blood suspension, 37° C., 24 h; metabolites (2,3-BPG, ATP) by LC/MS; read-out: hRBC EC50. On the procedure:
Example B3. Human Cell-Based Assay
The following materials were used in this assay: DMSO; Hemox buffer (30 mM TES, 135 mM NaCl, 5 mM KCl, pH 7.4); Inosine (100 mM in hemox buffer); Glucose (1 M in water); human red blood cells; LC/MS Optima grade methanol; LC/MS Optima grade water; and Incubation buffer (30 mM TES, 135 mM NaCl, 5 mM KCl, 50 mM inosine, 20 mM glucose pH 7.4).
Test compounds were loaded onto a 96-well plate (final concentration of DMSO was 1%). 10 mL whole blood was resuspended with an equivalent amount of 2× incubation buffer to make 25% het & 50% plasma solution. The final solution contains 10 mM glucose and 25 mM inosine. The blood suspension (100 uL) was added to the wells of the plate. The plate was covered with an adhesive foil cover and plastic lid, and incubated at 37° C. for 24 h. The samples were extracted through an SPE column and the metabolites (2,3-BPG, ATP) were analyzed by LC/MS.

The target of assay [2] is hBPGM (Homo sapiens (Human), UniProt P07738). The assay is described as follows: BPGM Synthase Assay. Particulars: Table 6 additional results; read-out: huBPGM: synthase Enzyme IC50. The class given is biochemical. The essentials: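 BPGM (5 nM) with GAPDH (0.4 U/mL) was incubated with compound for 30 min at RT in pH 7.4 Tris buffer with 3.23 mM KH2PO4 and 1 mM DTT. Reaction ran 60 min with NAD, 3PG and GAP (substrate solution 2 mM, 20 μM and 800 μM). After koningic acid stop, NADH fluorescence was read, then resorufin from diaphorase/resazurin coupling.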

Assay [3] concerns the target human Bisphosphoglycerate mutase (hBPGM) (Homo sapiens (Human), UniProt P07738). The assay can be described thus: BPGM Phosphatase Assay. The class given is biochemical. Particulars: Table 6 additional results; read-out: huBPGM: phosphatase Enzyme EC50. On the procedure:
Solutions of the test compounds were then added to the plate and the DMSO content was normalized across the plate. The plate was incubated at RT for 15 min. Next, the substrate 2,3-BPG (5 μL) was added to all the wells, and the plate was sealed and incubated for 24 hr at RT. After incubation, BIOMOL green dye (40 μL) was added to all the wells, the plate was shaken to mix, and the plate was incubated at RT for 20-30 min.

In patent publication US20230348450A1, “CARBOXYLIC ACID-CONTAINING COMPOUNDS AS MODULATORS OF BIS-PHOSPHOGLYCERATE MUTASE FOR THE TREATMENT OF SICKLE CELL DISEASE” (Genzyme Corporation, priority 2020, published 2023) one finds EC50 and IC50 data, which are given here for 40 compounds.

The EC50 is the midpoint of the concentration-response curve. Broadly, the IC50 is the concentration needed to halve the response being measured.

hBPGM, sequence (P07738 whole entry, looked up): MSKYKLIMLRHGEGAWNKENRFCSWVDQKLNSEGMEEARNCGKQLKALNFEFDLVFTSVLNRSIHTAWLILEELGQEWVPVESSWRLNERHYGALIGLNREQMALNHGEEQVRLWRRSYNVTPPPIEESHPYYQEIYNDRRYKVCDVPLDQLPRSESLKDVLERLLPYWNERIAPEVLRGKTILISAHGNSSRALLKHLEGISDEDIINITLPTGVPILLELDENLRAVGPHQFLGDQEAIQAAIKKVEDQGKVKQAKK
human Bisphosphoglycerate mutase (hBPGM), sequence (P07738 whole entry): as the sequence (P07738 whole entry, looked up) above

Take `Cc1nc(COc2ncccn2)sc1-c1cccc(-c2ccc(S(=O)(=O)CC(=O)O)cc2)n1` [compound 2, 2-[4-[6-[4-methyl-2-(pyrimidin-2-yloxymethyl)thiazol-5-yl]-2-pyridyl]phenyl]sulfonylacetic Acid]: the EC50 in assay [1] was > 100000 nM.

On to `Cc1nc(CNC(=O)C(C)(C)N(C)C)sc1-c1csc(-c2cc(O)c(C(=O)O)cc2F)n1` [Example 123], for which the IC50 in assay [2] stood at 530 nM. For the same compound, the EC50 in assay [3] was found to be 9700 nM.

For `COC(=O)NCc1nc(C)c(-c2csc(-c3cc(O)c(C(=O)NCC(=O)O)cc3F)n2)s1` [Example 191], the IC50 in assay [2] came to 780 nM. Moreover, the EC50 in assay [3] was 570 nM.

As for `Cc1nc(COc2cccnc2)sc1-c1cccc(-c2ccc(C(=O)O)c(O)c2)c1` [Example 102], in assay [2], the IC50 came out at 900 nM. Also, the EC50 in assay [3] was found to be 360 nM.

Turning to `Cc1nc(C)c(-c2csc(-c3cc(O)c(C(=O)O)cc3F)n2)s1` [Example 285], the IC50 in assay [2] was found to be 320 nM. Besides, in assay [3], the EC50 came out at 400 nM.

As to `COC(=O)NCc1nc(C)c(-c2csc(-c3cc(O)c(C(=O)O)cc3C)n2)s1` [Example 130], the IC50 in assay [2] stood at 70 nM. Further, the EC50 in assay [3] stood at 40 nM.

`Cc1nc(CN)sc1-c1csc(-c2ccc(C(=O)O)c(O)c2)c1` [Example 244]: the IC50 in assay [2] was found to be 840 nM. For the same compound, the EC50 in assay [3] was > 25000 nM.

For `Cc1nc(CNC(=O)C(N)=O)sc1-c1csc(-c2cc(O)c(C(=O)O)cc2F)n1` [Example 202], the 50% inhibitory concentration (IC50) in assay [2] worked out at 120 nM. Further, in assay [3], the EC50 stood at 150 nM.

As for `Cc1nc(Cn2cccn2)sc1-c1cccc(-c2cc(O)c(C(=O)O)cc2F)c1` [Example 262], the IC50 in assay [2] amounted to 530 nM. Also, in assay [3], the EC50 worked out at 510 nM.

In the case of `Cc1nc(C)c(-c2csc(-c3cc(O)c(C(=O)O)cc3F)c2)s1` [Example 254], the half-maximal inhibitory concentration (IC50) in assay [2] amounted to 290 nM. The EC50 in assay [3] turned out to be 220 nM.

As for `Cc1nc(COC(=O)N(C)CCN(C)C)sc1-c1csc(-c2cc(O)c(C(=O)O)cc2F)n1` [Example 113], in assay [2], the IC50 came to 130 nM. Moreover, the EC50 in assay [3] amounted to 170 nM.

Regarding `Cc1nc(COCC(N)=O)sc1-c1csc(-c2cc(O)c(C(=O)O)cc2F)n1` [Example 156], the IC50 in assay [2] was 350 nM. The EC50 in assay [3] was 1500 nM.

Turning to `COC(=O)NCc1nc(C)c(-c2csc(-c3ccc(C(=O)O)c(O)c3)n2)s1` [Example 213], in assay [2], the IC50 stood at 130 nM. Further, in assay [3], the EC50 worked out at 140 nM.

Take `Cc1nc(CNc2ccccn2)sc1-c1cccc(-c2ccc(C(=O)O)c(O)c2)c1` [Example 246]: the IC50 in assay [2] stood at 820 nM. Also, the 50% effective concentration (EC50) in assay [3] came to 110 nM.

Consider `Cc1nc(COc2ccccn2)sc1-c1cccc(-c2ccc(C(=O)O)c(O)c2)c1` [compound 4, 2-hydroxy-4-[3-[4-methyl-2-(2-pyridyloxymethyl)thiazol-5-yl]phenyl]benzoic Acid], for which, in assay [1], the EC50 stood at 23500 nM.

As for `Cc1nc(CNC2CCCOC2)sc1-c1cccc(-c2ccc(C(=O)O)cc2)c1` (stereo not drawn) [Example 52], the IC50 in assay [2] worked out at 16000 nM. Also, the EC50 in assay [3] was > 25000 nM.

For the compound `Cc1nc(CNC2CCC2)sc1-c1csc(-c2cc(O)c(C(=O)O)cc2F)n1` [Example 186], the IC50 in assay [2] turned out to be 380 nM. Further, the EC50 in assay [3] turned out to be 30 nM.

Consider `Cc1nc(CNC(=O)C2CCN(C)C2)sc1-c1csc(-c2cc(O)c(C(=O)O)cc2F)n1` (stereo not drawn) [Example 127], for which, in assay [2], the half-inhibitory concentration (IC50) is 490 nM. In addition, the EC50 in assay [3] was 420 nM.

As to `Cc1nc(CNC(=O)OC2CC2)sc1-c1csc(-c2cc(O)c(C(=O)O)cc2F)n1` [Example 215], the IC50 in assay [2] was 95 nM. The half-maximal effective concentration (EC50) in assay [3] was found to be 55 nM.

Regarding `Cc1nc(COc2ccnn2C)sc1-c1csc(-c2cc(O)c(C(=O)O)cc2F)n1` [Example 218], in assay [2], the IC50 came out at 130 nM. Further, the EC50 in assay [3] stood at 170 nM.

As to `Cc1nc(CNC(=O)C2CC2)sc1-c1csc(-c2ccc(C(=O)O)c(O)c2)c1` [Example 97], the IC50 in assay [2] was 100 nM. In addition, in assay [3], the EC50 came out at 160 nM.

For the compound `Cc1nc(CNC(=O)C2CC2)sc1-c1cccc(-c2ccc(C(=O)O)c(O)c2)c1` [Example 276], in assay [2], the IC50 was determined as 480 nM. Also, the half-maximal effective concentration (EC50) in assay [3] was determined as 590 nM.

Take `Cc1nc(CNC(=O)C2CC2)sc1-c1cccc(-c2cc(O)c(C(=O)O)cc2F)n1` [Example 236]: the IC50 in assay [2] came out at 130 nM. In addition, in assay [3], the EC50 was 360 nM.

For the compound `Cc1nc(CNC(=O)c2cccc(C#N)n2)sc1-c1csc(-c2cc(O)c(C(=O)O)cc2F)n1` [Example 180], in assay [2], the IC50 worked out at 28 nM. Moreover, the EC50 in assay [3] came to 20 nM.

With `COC(=O)NCc1nc(C)c(-c2ccnc(-c3ccc(C(=O)O)c(O)c3)n2)s1` [Example 185], the IC50 in assay [2] came to 160 nM. In addition, the EC50 in assay [3] worked out at 30 nM.

Take `Cc1nc(COc2ncccn2)sc1-c1cccc(-c2c[nH]c(C(=O)O)c2)n1` [Example 76]: the IC50 in assay [2] was 3500 nM. The EC50 in assay [3] is > 25000 nM.

As for `Cc1nc(C)c(-c2cccc(-c3cc(O)c(C(=O)O)cc3F)n2)s1` [Example 259], in assay [2], the IC50 came out at 570 nM. The half-maximal effective concentration (EC50) in assay [3] is > 25000 nM.

As to `Cc1nc(CNCC(=O)N(C)C)sc1-c1csc(-c2cc(O)c(C(=O)O)cc2F)n1` [Example 169], the IC50 in assay [2] came to 480 nM. Besides, in assay [3], the 50% effective concentration (EC50) came out at 110 nM.

Turning to `Cc1nc(Cn2cccc(C#N)c2=O)sc1-c1cccc(-c2ccc(C(=O)O)c(O)c2)c1` [Example 100], in assay [2], the IC50 is 560 nM. Further, the concentration for a half-maximal effect (EC50) in assay [3] was determined as 420 nM.

Regarding `COC(=O)NCc1nc(C)c(-c2csc(-c3cc(O)c(C(=O)O)cc3Cl)n2)s1` [Example 211], the IC50 in assay [2] amounted to 100 nM. In assay [3], the EC50 was 190 nM.

Turning to `Cc1nc(COc2ncccn2)sc1-c1cccc(-c2ccc(C(=O)O)c(F)c2)n1` [Example 96], the IC50 in assay [2] was 1300 nM. In addition, the EC50 in assay [3] is 10 nM.

Consider `Cc1nc(COC(=O)N2CCCC2)sc1-c1csc(-c2cc(O)c(C(=O)O)cc2F)n1` [Example 154], for which the half-inhibitory concentration (IC50) in assay [2] stood at 170 nM. Further, the EC50 in assay [3] turned out to be 40 nM.

As to `Cc1nc(CNC(=O)OCCN(C)C)sc1-c1csc(-c2cc(O)c(C(=O)O)cc2F)n1` [Example 114], in assay [2], the IC50 came to 150 nM. For the same compound, in assay [3], the EC50 is 170 nM.

Turning to `Cc1nc(CNC(=O)c2cccnc2)sc1-c1csc(-c2cc(O)c(C(=O)O)cc2F)n1` [Example 199], the IC50 in assay [2] was 67 nM. For the same compound, the EC50 in assay [3] came to 320 nM.

With `COC(=O)NCc1nc(C)c(-c2csc(-c3cc(O)c(C(=O)O)cc3F)c2)s1` [Example 161], the IC50 in assay [2] worked out at 59 nM. Further, the EC50 in assay [3] amounted to 79 nM.

Turning to `Cc1nc(CNC(=O)C(C)(C)C)sc1-c1csc(-c2cc(O)c(C(=O)O)cc2F)n1` [Example 124], in assay [2], the IC50 was found to be 49 nM. The EC50 in assay [3] came out at 50 nM.

For `Cc1nc(COc2ccccn2)sc1-c1csc(-c2cc(O)c(C(=O)O)cc2F)c1` [Example 146], the IC50 in assay [2] came out at 460 nM. In addition, the EC50 in assay [3] is 50 nM.

As to `Cc1nc(CNC(=O)N2CCCC2)sc1-c1csc(-c2cc(O)c(C(=O)O)cc2F)n1` [Example 198], the IC50 in assay [2] was 50 nM. Also, in assay [3], the EC50 amounted to 190 nM.

For `Cc1nc(Cc2ccn(C)n2)sc1-c1csc(-c2ccc(C(=O)O)c(O)c2)c1` [Example 216], in assay [2], the IC50 worked out at 190 nM. Besides, in assay [3], the EC50 is 200 nM.

As for `Cc1nc(COC(=O)N(C)C)sc1-c1cccc(-c2ccc(C(=O)O)cc2)c1` [Example 67], the IC50 in assay [2] amounted to 870 nM. In addition, the EC50 in assay [3] stood at 550 nM.
